Measured values reported in publication PMC10101059, “Rational Design of Stapled Antimicrobial Peptides to Enhance Stability and In Vivo Potency against Polymicrobial Sepsis” (Microbiology Spectrum, 2023).
In brackets after ≈: the same amount, converted by molar mass. Read-outs that look alike come from different tables or passages of the source. Bridge positions count the residues as written; N and C are the ends. Square brackets hold non-standard residues; d marks the D form. Peptide text beside a SMILES is read from it. R5 = C=CCCC[C@@](C)(N)C(=O)O

Assays:
A. baumannii = experiment: Serial passage (induced resistance) assay; assay type: cell-based, Acinetobacter baumannii; conditions: after serial passage for 15 cycles
Procedure: The experimental procedure was performed according to the MIC protocol for A. baumannii described above. Subsequently, bacterial samples from sub-MIC wells were passaged, and the MIC was estimated again. This process was repeated for 15 cycles, and the change in MIC over […] was reported ([23]).

Pseudomonas aeruginosa = experiment: microbe, parasite or virus in culture; assay type: cell-based; conditions: for MBC: read-out: MBC; for MIC: read-out: MIC
Procedure: (§1) The antimicrobial assay was performed according to a modified National Committee for Clinical Laboratory Standards (NCCLS) protocol ([41], [42]). Briefly, 5 × 10^5 CFU/mL bacterial cells were treated with various peptide concentrations and incubated at 37 ± 2°C for 16 to 20 h. The lowest concentration with clear wells was recorded as the MIC for each test molecule. The clear wells were further plated in Mueller-Hinton agar (MHA) plates, followed by incubation overnight at 37 ± 2°C. After plating, the lowest concentration at which no growth was observed was recorded as the MBC. For the serum sensitivity assay, the antimicrobial activity of the peptides was tested in medium containing 50% human serum ([43], [44]).

[1] = system: NDM-1 Klebsiella pneumoniae; experiment: microbe, parasite or virus in culture; assay type: cell-based
Procedure: as §1

Enterobacter aerogenes = experiment: microbe, parasite or virus in culture; assay type: cell-based
Procedure: as §1

Escherichia coli = experiment: microbe, parasite or virus in culture; assay type: cell-based
Procedure: as §1

Acinetobacter baumannii = experiment: microbe, parasite or virus in culture; assay type: cell-based; conditions: for MBC: read-out: MBC; for MIC: read-out: MIC
Procedure: as §1, with “[44]). The antimicrobial assay was performed in the presence of physiological ions and glucose. The test media were supplemented with MgCl2 (1 mM), CaCl2 (2 mM), NaCl (150 mM), KCl (4.5 mM), NH4Cl (6 μM) ([45], [46]), or glucose (0.2%) ([47]), followed by routine antimicrobial assay as described previously. For the pH sensitivity assay, the antimicrobial assay was performed in media adjusted to pH values ranging from 4 to 12. To estimate the effects of temperature on antimicrobial activity, the peptide was incubated for 1 h at temperatures ranging from 40 to 100°C ([48]), followed by the antimicrobial assay as described above.” for “[44]).”

MDR A. baumannii 1033 = experiment: Checkerboard microdilution assay (FICI); assay type: cell-based, Acinetobacter baumannii; conditions: for MIC: read-out: Single drug treatment MIC; for TP4-3 and meropenem combined MIC: MIC of each agent in combination
Procedure: (§2) The FICI was measured using a standard checkerboard microdilution assay ([57]). Two-fold dilutions of antibiotics were made across the x axis, and two-fold peptide dilutions were made across the y axis. Next, bacteria were added at 5 × 10^5 CFU/well (A. baumannii), followed by incubation at 37 ± 2°C for 16 to 20 h. FIC indices were calculated according to the following equations: FICI = FIC1 + FIC2; FIC1 = (MIC12 combined)/MIC1; FIC2 = (MIC12 combined)/MIC2. The combined efficacy was estimated as follows: FICI ≤ 0.5, synergistic; 0.5 to 1, additive; 1 to 2, indifferent; ≥2, antagonistic.

MDR A. baumannii 2088 = experiment: Checkerboard microdilution assay (FICI); assay type: cell-based, Acinetobacter baumannii; conditions: for MIC: read-out: Single drug treatment MIC; for TP4-3 and meropenem combined MIC: MIC of each agent in combination
Procedure: as §2

MDR A. baumannii 2997 = experiment: Checkerboard microdilution assay (FICI); assay type: cell-based, Acinetobacter baumannii; conditions: for MIC: read-out: Single drug treatment MIC; for TP4-3 and meropenem combined MIC: MIC of each agent in combination
Procedure: as §2

MDR A. baumannii 3618 = experiment: Checkerboard microdilution assay (FICI); assay type: cell-based, Acinetobacter baumannii; conditions: for MIC: read-out: Single drug treatment MIC; for TP4-3 and meropenem combined MIC: MIC of each agent in combination
Procedure: as §2

MDR A. baumannii 2998 = experiment: Checkerboard microdilution assay (FICI); assay type: cell-based, Acinetobacter baumannii; conditions: for MIC: read-out: Single drug treatment MIC; for TP4-3 and meropenem combined MIC: MIC of each agent in combination
Procedure: as §2

A. baumannii biofilm = experiment: Biofilm inhibition assay; assay type: cell-based, Acinetobacter baumannii; conditions: 0.5× to 4× MIC
Procedure: (i) Biofilm inhibition assay. Fifty μL of 2 × 10^6 CFU/mL A. baumannii bacterial suspension was added to a 96-well plate. Then, 50 μL of peptide/drug (various concentrations) was added, and the plate was incubated for 24 h. The residual solution was removed, and wells were washed, followed by treatment with 100% methanol for 15 min at room temperature. The methanol was then removed, and the wells were allowed to dry at room temperature. Next, the wells were incubated with 100 μL of 0.02% crystal violet for 30 min. After the incubation, the wells were washed with distilled water and dried for an appropriate length of time. Finally, 100 μL of 33% acetic acid was added to the wells for 1 h, followed by reading the absorbance at 595 nm ([55]).

[2] = Pseudomonas aeruginosa, MHB medium
[3] = HS, 50% human serum containing MHB medium
[4] = Klebsiella pneumoniae, MHB medium
[5] = Klebsiella aerogenes, MHB medium
[6] = Escherichia coli, HS, 50% human serum containing MHB medium
[7] = 24 h pre-incubation in 50% human serum
[8] = Acinetobacter baumannii, 1 h, agent pre-exposed to 40°C for 1 h
[9] = Acinetobacter baumannii, 1 h, agent pre-exposed to 60°C for 1 h
[10] = Acinetobacter baumannii, 1 h, agent pre-exposed to 80°C for 1 h
[11] = Acinetobacter baumannii, preincubation in 50% human serum 2 h
[12] = Acinetobacter baumannii, preincubation in 50% human serum 6 h
[13] = Acinetobacter baumannii, preincubation in 50% human serum 12 h
[14] = Acinetobacter baumannii, preincubation in 50% human serum 24 h

## C[C@@H](O)[C@H]1C(=O)N2C(C(=O)O)=C(S[C@@H]3CN[C@H](C(=O)N(C)C)C3)[C@H](C)[C@H]12 [Meropenem]
A. baumannii
  net increase in the MIC: 53 fold
Pseudomonas aeruginosa; Pseudomonas aeruginosa, HS, 50% human serum containing MHB medium
  MBC: 3.13 µM (≈ 1.2 µg/mL)
Pseudomonas aeruginosa; [2]
  MBC: 6.25 µM (≈ 2.4 µg/mL)
  MIC: 3.13 µM (≈ 1.2 µg/mL)
Pseudomonas aeruginosa
  MIC: 1.56 µM (≈ 0.598 µg/mL)
[1]; [3]
  MBC: >25 µM
  MIC: >25 µM
[1]; [4]
  MBC: > 25 µM
  MIC: > 25 µM
Enterobacter aerogenes; [5]
  MBC: 0.39 µM (≈ 0.15 µg/mL)
  MIC: 0.39 µM (≈ 0.15 µg/mL)
Escherichia coli; [6]
  MBC: 0.78 µM (≈ 0.299 µg/mL)
  MIC: 0.78 µM (≈ 0.299 µg/mL)
Escherichia coli; Escherichia coli, MHB medium
  MBC: 0.39 µM (≈ 0.15 µg/mL)
  MIC: 0.39 µM (≈ 0.15 µg/mL)
Acinetobacter baumannii; [7]
  reduction of activity: 2 fold
Acinetobacter baumannii; [8]
  MBC: 6.25 µM (≈ 2.4 µg/mL)
  MIC: 6.25 µM (≈ 2.4 µg/mL)
Acinetobacter baumannii; [9]
  MBC: 6.25 µM (≈ 2.4 µg/mL)
  MIC: 6.25 µM (≈ 2.4 µg/mL)
Acinetobacter baumannii; [10]
  MBC: 12.5 µM (≈ 4.79 µg/mL)
  MIC: 12.5 µM (≈ 4.79 µg/mL)
Acinetobacter baumannii; Acinetobacter baumannii, 1 h, agent pre-exposed to 100°C for 1 h
  MBC: > 25 µM
Acinetobacter baumannii; [11]
  MBC: 6.25 to 12.5 µM (≈ 2.4 to 4.79 µg/mL)
  MIC: 6.25 µM (≈ 2.4 µg/mL)
Acinetobacter baumannii; [12]
  MBC: 6.25 to 12.5 µM (≈ 2.4 to 4.79 µg/mL)
  MIC: 6.25 µM (≈ 2.4 µg/mL)
Acinetobacter baumannii; [13]
  MBC: 12.5 µM (≈ 4.79 µg/mL)
  MIC: 6.25 µM (≈ 2.4 µg/mL)
Acinetobacter baumannii; [14]
  MBC: 25 µM (≈ 9.59 µg/mL)
  MIC: 12.5 µM (≈ 4.79 µg/mL)
Acinetobacter baumannii; Acinetobacter baumannii, agent pre-exposed to 100°C for 1 h
  MIC: > 25 µM
MDR A. baumannii 1033; Acinetobacter baumannii
  MIC: 200 µM
MDR A. baumannii 1033; TP4-3 and M
  TP4-3 and meropenem combined MIC: 50 µM
MDR A. baumannii 2088; Acinetobacter baumannii
  MIC: 400 µM
MDR A. baumannii 2088; TP4-3 and M
  TP4-3 and meropenem combined MIC: 100 µM
MDR A. baumannii 2997; Acinetobacter baumannii
  MIC: 200 µM
MDR A. baumannii 2997; TP4-3 and M
  TP4-3 and meropenem combined MIC: 12.5 µM
MDR A. baumannii 3618; Acinetobacter baumannii
  MIC: 200 µM
MDR A. baumannii 3618; TP4-3 and M
  TP4-3 and meropenem combined MIC: 25 µM
MDR A. baumannii 2998; Acinetobacter baumannii
  MIC: 400 µM
MDR A. baumannii 2998; TP4-3 and M
  TP4-3 and meropenem combined MIC: 50 µM
A. baumannii biofilm
  inhibition of biofilm (biomass) formation: substantial inhibition of biomass formation

## CC[C@H](C)[C@H](NC(=O)[C@@H](NC(=O)[C@@H](N)Cc1ccccc1)[C@@H](C)CC)C(=O)N[C@]1(C)CCCC=CCCC[C@](C)(C(=O)NCC(=O)N[C@@H](CC(C)C)C(=O)N[C@@H](Cc2ccccc2)C(=O)N[C@@H](CCCCN)C(=O)N[C@@H](CCCCN)C(=O)N[C@@H](CCCCN)C(=O)N[C@@H](C)C(=O)NCC(=O)N[C@@H](C)C(=O)N[C@]2(C)CCCC=CCCC[C@](C)(C(=O)N[C@H](C(=O)N[C@@H](CCCCN)C(=O)N[C@@H](CCCCN)C(=O)O)[C@@H](C)CC)NC(=O)[C@H](CCCCN)NC(=O)[C@H](CCCCN)NC(=O)[C@H](CCCCN)NC2=O)NC(=O)[C@H](CO)NC(=O)[C@H](CCCCN)NC(=O)[C@H](CCCCN)NC1=O [TP4-3] (H-FII[R5]KKS[R5]GLFKKKAGA[R5]KKK[R5]IKK-OH; staple 4-8, 18-22; N-terminus and C-terminus assumed)
A. baumannii
  net increase in the MIC: 5 fold
Pseudomonas aeruginosa
  MBC: 25 µM (≈ 72.3 µg/mL)
  MIC: 25 µM (≈ 72.3 µg/mL)
[1]; NDM-1
  MBC: 25 µM (≈ 72.3 µg/mL)
  MIC: 25 µM (≈ 72.3 µg/mL)
Enterobacter aerogenes
  MBC: 25 µM (≈ 72.3 µg/mL)
  MIC: 25 µM (≈ 72.3 µg/mL)
Escherichia coli
  MBC: 25 µM (≈ 72.3 µg/mL)
  MIC: 25 µM (≈ 72.3 µg/mL)
Acinetobacter baumannii; 12 h pretreatment in 50% human serum
  reduction of activity: 2 fold
Acinetobacter baumannii; [7]
  reduction of activity: 4 fold
Acinetobacter baumannii; in pH 6
  reduction of activity (MBC): 4 fold
Acinetobacter baumannii; media supplemented with CaCl2
  lower bactericidal potency: ≤ 8 fold
Acinetobacter baumannii; media supplemented with MgCl2
  lower bactericidal potency: up to 4 fold
Acinetobacter baumannii; media supplemented with NaCl, KCl, or NH4Cl vs non-supplemented medium
  lowered bactericidal potency (MBC): up to 2 fold
Acinetobacter baumannii; pH 6
  MBC: 12.5 µM (≈ 36.1 µg/mL)
  MIC: 12.5 µM (≈ 36.1 µg/mL)
Acinetobacter baumannii; pH 7.4
  MBC: 3.13 µM (≈ 9.05 µg/mL)
  MIC: 3.13 µM (≈ 9.05 µg/mL)
Acinetobacter baumannii; pH 8
  MBC: 3.13 µM (≈ 9.05 µg/mL)
  MIC: 3.13 µM (≈ 9.05 µg/mL)
Acinetobacter baumannii; pH 10
  MBC: 3.13 µM (≈ 9.05 µg/mL)
  MIC: 0.78 µM (≈ 2.25 µg/mL)
MDR A. baumannii 1033; TP4-3 and D
  TP4-3 and meropenem combined MIC: 3.13 µM
MDR A. baumannii 1033; TP4-3 and M
  TP4-3 and meropenem combined MIC: 3.13 µM
MDR A. baumannii 1033
  MIC: 12.5 µM
MDR A. baumannii 2088; TP4-3 and D
  TP4-3 and meropenem combined MIC: 3.13 µM
MDR A. baumannii 2088; TP4-3 and M
  TP4-3 and meropenem combined MIC: 3.13 µM
MDR A. baumannii 2088
  MIC: 6.25 µM
MDR A. baumannii 2997; TP4-3 and D
  TP4-3 and meropenem combined MIC: 3.13 µM
MDR A. baumannii 2997; TP4-3 and M
  TP4-3 and meropenem combined MIC: 3.13 µM
MDR A. baumannii 2997
  MIC: 6.25 µM
MDR A. baumannii 3618; TP4-3 and D
  TP4-3 and meropenem combined MIC: 3.13 µM
MDR A. baumannii 3618; TP4-3 and M
  TP4-3 and meropenem combined MIC: 3.13 µM
MDR A. baumannii 3618
  MIC: 12.5 µM
MDR A. baumannii 2998; TP4-3 and D
  TP4-3 and meropenem combined MIC: 3.13 µM
MDR A. baumannii 2998; TP4-3 and M
  TP4-3 and meropenem combined MIC: 3.13 µM
MDR A. baumannii 2998
  MIC: 6.25 µM
A. baumannii biofilm
  inhibition of biofilm (biomass) formation: substantial inhibition of biomass formation
